Measured values taken from patent publication US12600709B2, “Nonpeptide somatostatin type 5 receptor agonists and uses thereof” (Crinetics Pharmaceuticals, Inc., priority 2019, dated 2026).
Where two headings read alike, the source gives them in different places.

Legend:
[1] = molecular target: T1, human somatostatin receptor subtype 5 (Homo sapiens, UniProt P35346); test: cAMP assay for SST5R (inhibition of cAMP in CHO-K1 cells); type: cell-based; details: for EC50: inhibition of cAMP via human SST5 receptor, read-out: SST5 potency; for Fold selectivity for SST5 vs SST2: class symbols, SST5 receptor over SST2 receptor
T1 construct: expressed in transfected cells
T1 sequence (P35346 whole entry): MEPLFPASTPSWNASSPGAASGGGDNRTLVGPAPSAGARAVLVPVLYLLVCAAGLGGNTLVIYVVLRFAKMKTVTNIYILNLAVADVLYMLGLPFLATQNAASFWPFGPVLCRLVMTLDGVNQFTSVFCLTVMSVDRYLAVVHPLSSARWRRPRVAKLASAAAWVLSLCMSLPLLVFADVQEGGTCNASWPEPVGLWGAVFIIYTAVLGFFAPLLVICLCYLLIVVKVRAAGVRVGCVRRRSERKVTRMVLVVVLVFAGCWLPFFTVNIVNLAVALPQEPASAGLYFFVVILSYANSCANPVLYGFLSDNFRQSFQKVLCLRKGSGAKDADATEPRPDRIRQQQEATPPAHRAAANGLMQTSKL
Procedure, shortened: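 CHO-K1 cells stably expressing human SSTR5 were treated 20 min at 37 °C with compounds plus 1.6 μM NKH477 in HBSS, 0.5 mM HEPES pH 7.4, 0.1% BSA, 0.2 mM IBMX. Lysate cAMP measured by HTRF against a standard curve; EC50 from cAMP-versus-concentration plots.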

[2] = molecular target: T2, human somatostatin receptor subtype 2 (Homo sapiens, UniProt P30874); test: cAMP assay for SST2R (inhibition of cAMP in CHO-K1 cells); type: cell-based; details: Table B; inhibition of cAMP via human SST2 receptor; read-out: SST2 potency
T2 construct: expressed in transfected cells
T2 sequence (P30874 whole entry): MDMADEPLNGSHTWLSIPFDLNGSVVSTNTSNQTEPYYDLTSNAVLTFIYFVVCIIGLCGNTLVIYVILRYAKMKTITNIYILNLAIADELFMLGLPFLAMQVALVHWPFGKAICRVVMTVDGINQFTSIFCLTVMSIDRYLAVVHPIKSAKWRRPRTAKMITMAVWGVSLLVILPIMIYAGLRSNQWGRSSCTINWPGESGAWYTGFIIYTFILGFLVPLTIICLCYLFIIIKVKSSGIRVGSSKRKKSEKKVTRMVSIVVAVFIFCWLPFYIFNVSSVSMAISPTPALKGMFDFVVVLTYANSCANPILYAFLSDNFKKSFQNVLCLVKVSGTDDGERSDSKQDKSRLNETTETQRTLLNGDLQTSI
Procedure, shortened: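 CHO-K1 cells stably expressing human SSTR2, plated 4 days prior, treated 20 min at 37° C with 1.6 μM NKH477 plus compound dilutions in HBSS/HEPES pH 7.4/0.1% BSA/0.2 mM IBMX. Lysate cAMP measured by HTRF against standard curve; EC50 from concentration-response.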

SMILES	EC50 ([1]; Table A)	Fold selectivity for SST5 vs SST2 ([1]; Table B)	EC50 ([1]; Table B)	EC50 [2]
Cc1ncc(C(=O)N[C@@H](C)C2CC2)c(N2CC[C@](C)(N)C2)c1-c1cc(F)cc(C#N)c1 [1-123, 4-[(3S)-3-amino-3-methylpyrrolidin-1-yl]-5-(3-cyano-5-fluorophenyl)-N-[(1S)-1-cyclopropylethyl]-6-methylpyridine-3-carboxamide]	< 10 nM	+++ (+++=>500)	< 10 nM	100 to 1000 nM
Cc1ncc(C(=O)N[C@@H](C)C2CC2)c(N2CC[C@](C)(N)C2)c1-c1cccc(F)c1 [1-124, 4-[(3S)-3-amino-3-methylpyrrolidin-1-yl]-N-[(1S)-1-cyclopropylethyl]-5-(3-fluorophenyl)-6-methylpyridine-3-carboxamide]	< 10 nM	+++ (+++=>500)	< 10 nM	100 to 1000 nM
Cc1ncc(C(=O)N[C@@H](C)C2CC2)c(N2CC[C@](C)(N)C2)c1-c1cc(F)cc(Cl)c1 [1-125, 4-[(3S)-3-amino-3-methylpyrrolidin-1-yl]-5-(3-chloro-5-fluorophenyl)-N-[(1S)-1-cyclopropylethyl]-6-methylpyridine-3-carboxamide]	< 10 nM	+++ (+++=>500)	< 10 nM	10 to 100 nM
CC(NC(=O)c1cnc(C#N)c(-c2cc(F)cc(F)c2)c1N1CC[C@](C)(N)C1)c1ncccn1 (stereo partly drawn) [1-126, 4-[(3S)-3-amino-3-methylpyrrolidin-1-yl]-6-cyano-5-(3,5-difluorophenyl)-N-[1-(pyrimidin-2-yl)ethyl]pyridine-3-carboxamide]	< 10 nM	+++ (+++=>500)	< 10 nM	> 1000 nM
C[C@H](NC(=O)c1cnc(C#N)c(-c2cccc(OC(F)(F)F)c2)c1N1CC[C@](C)(N)C1)C1CC1 [1-127, 4-[(3S)-3-amino-3-methylpyrrolidin-1-yl]-6-cyano-N-[(1S)-1-cyclopropylethyl]-5-[3-(trifluoromethoxy)phenyl]pyridine-3-carboxamide]	< 10 nM	+++ (+++=>500)	< 10 nM	100 to 1000 nM
Cc1ncc(-c2c(C#N)ncc(C(=O)N[C@@H](C)C3CC3)c2N2CC[C@](C)(N)C2)s1 [1-128, 4-[(3S)-3-amino-3-methylpyrrolidin-1-yl]-6-cyano-N-[(1S)-1-cyclopropylethyl]-5-(2-methyl-1,3-thiazol-5-yl)pyridine-3-carboxamide]	< 10 nM	+++ (+++=>500)	< 10 nM	100 to 1000 nM
C[C@H](NC(=O)c1cnc(C#N)c(-c2ccnc(C(F)(F)F)c2)c1N1CC[C@](C)(N)C1)C1CC1 [1-129, 4-[(3S)-3-amino-3-methylpyrrolidin-1-yl]-2-cyano-N-[(1S)-1-cyclopropylethyl]-2′-(trifluoromethyl)-[3,4′-bipyridine]-5-carboxamide]	< 10 nM	+++ (+++=>500)	< 10 nM	100 to 1000 nM
COc1ncc(C(=O)NC23CC(C2)C3)c(N2CC[C@](C)(N)C2)c1-c1cc(F)cc(F)c1 [1-130, 4-[(3S)-3-amino-3-methylpyrrolidin-1-yl]-N-{bicyclo[1.1.1]pentan-1-yl}-5-(3,5-difluorophenyl)-6-methoxypyridine-3-carboxamide]	< 10 nM	+++ (+++=>500)	< 10 nM	100 to 1000 nM
CC(NC(=O)c1cnc(C#N)c(-c2cc(F)cc(F)c2)c1N1CC[C@](C)(N)C1)c1ccon1 (stereo partly drawn) [1-132, 4-[(3S)-3-amino-3-methylpyrrolidin-1-yl]-6-cyano-5-(3,5-difluorophenyl)-N-[1-(1,2-oxazol-3-yl)ethyl]pyridine-3-carboxamide]	< 10 nM	+++ (+++=>500)	< 10 nM	> 1000 nM
C[C@H](NC(=O)c1cnc(C#N)c(-c2cc(F)cc(F)c2)c1N1C[C@@H](N)[C@H](F)C1)C1CC1 [1-135, 4-[(3R,4R)-3-amino-4-fluoropyrrolidin-1-yl]-6-cyano-N-[(1S)-1-cyclopropylethyl]-5-(3,5-difluorophenyl)pyridine-3-carboxamide]	< 10 nM	+++ (+++=>500)	< 10 nM	100 to 1000 nM

Results, then the compound that gave them:

EC50 ([1]; Table A)	Fold selectivity for SST5 vs SST2 ([1]; Table B)	EC50 ([1]; Table B)	EC50 [2]	SMILES
< 10 nM	+++ (+++=>500)	< 10 nM	> 1000 nM	C[C@]1(N)CCN(c2c(C(=O)NCc3ccon3)cnc(C#N)c2-c2cc(F)cc(F)c2)C1 [1-114, 4-[(3S)-3-amino-3-methylpyrrolidin-1-yl]-6-cyano-5-(3,5-difluorophenyl)-N-[(1,2-oxazol-3-yl)methyl]pyridine-3-carboxamide]
< 10 nM	+++ (+++=>500)	< 10 nM	> 1000 nM	C[C@]1(N)CCN(c2c(C(=O)NCc3ccccc3O)cnc(C#N)c2-c2cc(F)cc(F)c2)C1 [1-115, 4-[(3S)-3-amino-3-methylpyrrolidin-1-yl]-6-cyano-5-(3,5-difluorophenyl)-N-[(2-hydroxyphenyl)methyl]pyridine-3-carboxamide]
< 10 nM	+++ (+++=>500)	< 10 nM	> 1000 nM	COC[C@@]1(N)CCN(c2c(C(=O)N[C@@H](C)C3CC3)cnc(C#N)c2-c2cc(F)cc(F)c2)C1 [1-116, 4-[(3R)-3-amino-3-(methoxymethyl)pyrrolidin-1-yl]-6-cyano-N-[(1S)-1-cyclopropylethyl]-5-(3,5-difluorophenyl)pyridine-3-carboxamide]
< 10 nM	+++ (+++=>500)	< 10 nM	> 1000 nM	C[C@H](NC(=O)c1cnc(C#N)c(-c2cc(F)cc(F)c2)c1N1CC[C@](N)(CC(F)F)C1)C1CC1 [1-118, 4-[(3S)-3-amino-3-(2,2-difluoroethyl)pyrrolidin-1-yl]-6-cyano-N-[(1S)-1-cyclopropylethyl]-5-(3,5-difluorophenyl)pyridine-3-carboxamide]
< 10 nM	+++ (+++=>500)	< 10 nM	10 to 100 nM	C[C@H](NC(=O)c1cnc(C#N)c(-c2cccc(OC(F)F)c2)c1N1CC[C@](C)(N)C1)C1CC1 [1-120, 4-[(3S)-3-amino-3-methylpyrrolidin-1-yl]-6-cyano-N-[(1S)-1-cyclopropylethyl]-5-[3-(difluoromethoxy)phenyl]pyridine-3-carboxamide]
< 10 nM	+++ (+++=>500)	< 10 nM	> 1000 nM	C[C@H](NC(=O)c1cnc(C#N)c(-c2ccn(C)n2)c1N1CC[C@](C)(N)C1)C1CC1 [1-121, 4-[(3S)-3-amino-3-methylpyrrolidin-1-yl]-6-cyano-N-[(1S)-1-cyclopropylethyl]-5-(1-methyl-1H-pyrazol-3-yl)pyridine-3-carboxamide]
< 10 nM	+++ (+++=>500)	< 10 nM	100 to 1000 nM	Cc1ncc(C(=O)N[C@@H](C)C2CC2)c(N2CC[C@](C)(N)C2)c1-c1cc(F)cc(F)c1 [1-122, 4-[(3S)-3-amino-3-methylpyrrolidin-1-yl]-N-[(1S)-1-cyclopropylethyl]-5-(3,5-difluorophenyl)-6-methylpyridine-3-carboxamide]
